One data set concerns Pythium ultimum. Kind of data set: Pythium test (cotton) / seed treatment. The class given is in vivo. The following applies: 10 g/dt seed of active ingredient, emerged seedlings after 7 days. How it is done:
Pythium Test (Cotton)/Seed Treatment
The test is performed under greenhouse conditions.
Cotton seeds, treated with the active compound or compound combinations, solved in N-methyl-2-pyrrolidon and diluted with water to the desired dosages, were sown in 6*6 cm pots containing 4 cm of a 1:1 mix of steamed field soil and sand.
Perlite was incubated with mycelium fragments of Pythium ultimum. 1 ml of infected perlite was scattered between the treated cotton seeds. Seeds were then covered by light expanded clay aggregate. Pots were incubated in the greenhouse 7 days at 20° C. and 80% relative humidity.
Assessment consisted of counting of emerged seedlings. 0% means an efficacy which corresponds to that of the control, while an efficacy of 100% means that all seedlings have emerged.

In the next data set the test system is Phytophthora infestans. The class given is in vivo. The following applies: tomato, preventive spray, 100 ppm of active ingredient, evaluated 7 days after inoculation.
A further data set concerns Plasmopara viticola. Kind of data set: Plasmopara test (grapevines) / preventive. The class given is in vivo. The following applies: preventive spray, 10 ppm of active ingredient, evaluated 6 days after inoculation. How it is done: Plasmopara Test (Grapevines)/Preventive
To produce a suitable preparation of active compound, 1 part by weight of active compound is mixed with the stated amounts of solvent and emulsifier, and the concentrate is diluted with water to the desired concentration.
To test for preventive activity, young plants are sprayed with the preparation of active compound at the stated rate of application. After the spray coating has dried on, the plants are inoculated with an aqueous spore suspension of Plasmopara viticola and then remain for 1 day in an incubation cabinet at approximately 20° C. and a relative atmospheric humidity of 100%. The plant is subsequently placed for 4 days in a greenhouse at approximately 21° C. and a relative atmospheric humidity of approximately 90%. The plants are then misted and placed for 1 day in an incubation cabinet.
The test is evaluated 6 days after the inoculation. 0% means an efficacy which corresponds to that of the untreated control, while an efficacy of 100% means that no disease is observed.

Data set [1] can be described thus: log P by HPLC on reversed phase columns (EEC directive 79/831 Annex V.A8). The class given is physicochemical. The following applies: for chromatographic logP: reversed phase HPLC column, pH 2.7, formic acid eluent, reported in preparation example, read-out: log P(HCOOH); for logp: pH 2.7, 0.1% formic acid in water / acetonitrile gradient. How it is done: Measurement of log P values was performed according EEC directive 79/831 Annex V.A8 by HPLC (High Performance Liquid Chromatography) on reversed phase columns with the following method:
measurement of LC-MS was done at pH 2.7 with 0.1% formic acid in water and with acetonitrile (contains 0.1% formic acid) as eluent with a linear gradient from 10% acetonitrle to 95% acetonitrile.
Calibration was done with not branched alkan2-ones (with 3 to 16 carbon atoms) with known log P-values (measurement of log P values using retention times with linear interpolation between successive alkanones). lambda-maX-values were determined using UV-spectra from 200 nm to 400 nm and the peak values of the chromatographic signals.

“And” between values parts separate entries of the source, which are not always exact repeats. Equal entries are not always repeated.

On to `Cn1nnnc1C(=NOCc1csc(NC(=O)C2CCc3ccccc3O2)n1)c1ccccc1` (stereo not drawn) [Example 10, N-{4-[({[(1-methyl-1H-tetrazol-5-yl)(phenyl)methylene]amino}oxy)methyl]-1,3-thiazol-2-yl}chromane-2-carboxamide], for which the values for the Efficacy % in the data set on Pythium ultimum, in the data set with Phytophthora infestans and in the data set on Plasmopara viticola were 86%, 100% and 100%, respectively. For the same compound, the chromatographic logP in data set [1] worked out at 3.78.

For the compound `Cc1nnnn1C(=NOCc1cccc(NC(=O)C2Cc3ccccc3O2)n1)c1ccccc1` (stereo not drawn) [Example 56], the Efficacy % in the data set with Phytophthora infestans is listed as 100%; in the data set on Plasmopara viticola it was 85%. Moreover, the logp in data set [1] came to 3.71.

Turning to `Cc1cccc2c1OC(C(=O)Nc1cccc(CON=C(c3ccccc3)c3nnnn3C)n1)CO2` (stereo not drawn) [Example 8], the values for the Efficacy % in the data set on Phytophthora infestans and in the data set on Plasmopara viticola were 95% and 87%, respectively. Also, the logp in data set [1] is given as 4.08.

For `Cn1nnnc1C(=NOCc1csc(NC(=O)C2COc3ccccc3O2)n1)c1ccccc1` (stereo not drawn) [Example 11], the results for the Efficacy % in the data set with Pythium ultimum, in the data set with Phytophthora infestans and in the data set on Plasmopara viticola were 77%, 95% and 98%, respectively. This compound came in with a logp in data set [1] of 3.46.

As to `Cn1nnnc1C(=NOCc1cccc(NC(=O)C2Oc3ccccc3O2)n1)c1ccccc1` [Example 60], the Efficacy % with Phytophthora infestans was 95%; in the data set with Plasmopara viticola it was 97%. This compound showed a logp in data set [1] of 3.44.

Turning to `Cc1nnnn1C(=NOCc1csc(NC(=O)C2Cc3ccccc3O2)n1)c1ccccc1` (stereo not drawn) [Example 45], the results for the Efficacy % with Phytophthora infestans and with Plasmopara viticola were 98% and 96%, respectively. The same compound came in with a logp in data set [1] of 3.44.

In the case of `Cn1nnnc1C(=NOCc1cccc(NC(=O)C2Cc3ccccc3O2)n1)c1ccccc1` (stereo not drawn) [Example 41, N-{6-[({[(1-methyl-1H-tetrazol-5-yl)(phenyl)methylene]amino}oxy)methyl]pyridin-2-yl}-2,3-dihydro-1-benzofuran-2-carboxamide], the Efficacy % is 92% in the data set with Pythium ultimum; 89% with Phytophthora infestans; 97% and 91% with Plasmopara viticola. Also, in data set [1], the chromatographic logP stood at 3.67.

Source of the values: US8796463B2 (priority 2009, dated 2014).
